In ChEMBL document CHEMBL1201862, “PubChem BioAssay data set” (2004):
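Dose response: 5 concentrations. Exposure: 48 h. Format: 96-well plates. Endpoint: linear interpolation; highest concentration if not reached. GI50 marks 50% less growth.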 Calls of active or inactive are those of the source. Rule as the data show it: active = GI50 up to about 1.1 µM and inactive = higher.

Experiments:
Assay in all cases: NCI-60 cell line screen, 48 h
K562 = system: K562
HL-60 = system: HL-60
TK-10 = system: TK-10
SN12C = system: SN12C
UACC-257 = system: UACC-257
HCT-15 = system: HCT-15
NCI/ADR-RES = system: NCI/ADR-RES
LOX IMVI = system: LOX IMVI
CCRF-CEM = system: CCRF-CEM
BT-549 = system: BT-549
ACHN = system: ACHN
U-251 = system: U-251
MDA-MB-435 = system: MDA-MB-435
EKVX = system: EKVX
IGROV-1 = system: IGROV-1
HT-29 = system: HT-29
M14 = system: M14
HOP-92 = system: HOP-92
UACC-62 = system: UACC-62
DU-145 = system: DU-145
NCI-H226 = system: NCI-H226
HOP-62 = system: HOP-62
Hs-578T = system: Hs-578T
MOLT-4 = system: MOLT-4
SK-OV-3 = system: SK-OV-3
NCI-H460 = system: NCI-H460
SW-620 = system: SW-620
KM12 = system: KM12
HCT-116 = system: HCT-116
NCI-H23 = system: NCI-H23
OVCAR-4 = system: OVCAR-4
SF-295 = system: SF-295
RXF 393 = system: RXF 393
COLO 205 = system: COLO 205
CAKI-1 = system: CAKI-1
SK-MEL-28 = system: SK-MEL-28
SNB-75 = system: SNB-75
SF-268 = system: SF-268
MDA-MB-231 = system: MDA-MB-231
Malme-3M = system: Malme-3M
A498 = system: A498
T47D = system: T47D
PC-3 = system: PC-3
OVCAR-3 = system: OVCAR-3
786-0 = system: 786-0
A549 = system: A549
NCI-H522 = system: NCI-H522
SK-MEL-2 = system: SK-MEL-2
SK-MEL-5 = system: SK-MEL-5
SF-539 = system: SF-539
HCC 2998 = system: HCC 2998
MCF7 = system: MCF7
OVCAR-5 = system: OVCAR-5
MDA-N = system: MDA-N
UO-31 = system: UO-31
SNB-19 = system: SNB-19
OVCAR-8 = system: OVCAR-8
RPMI-8226 = system: RPMI-8226
SR = system: SR

Measured: GI50

COc1cc(O)c2c(=O)c(OC)c(-c3ccc4c(c3)OCO4)oc2c1OC
> 50 µM: HCT-15
inactive: K562 > 50 µM | HL-60 > 50 µM | TK-10 > 50 µM | SN12C > 50 µM | UACC-257 > 50 µM | NCI/ADR-RES > 50 µM | LOX IMVI > 50 µM | CCRF-CEM > 50 µM | BT-549 13.4 µM | ACHN > 50 µM | U-251 12.9 µM | MDA-MB-435 > 50 µM | EKVX 39 µM | IGROV-1 > 50 µM | HT-29 > 50 µM | M14 > 50 µM | HOP-92 7.6 µM | UACC-62 > 50 µM | DU-145 > 50 µM | NCI-H226 > 50 µM | HOP-62 21.8 µM | Hs-578T 28.1 µM | MOLT-4 > 50 µM | SK-OV-3 21.7 µM | NCI-H460 > 50 µM | SW-620 > 50 µM | KM12 > 50 µM | HCT-116 49.7 µM | NCI-H23 > 50 µM | OVCAR-4 > 50 µM | SF-295 29 µM | RXF 393 18.9 µM | COLO 205 > 50 µM | CAKI-1 > 50 µM | SK-MEL-28 > 50 µM | SNB-75 11.6 µM | SF-268 21.7 µM | MDA-MB-231 32 µM | Malme-3M > 50 µM | A498 > 50 µM | T47D > 50 µM | PC-3 > 50 µM | OVCAR-3 > 50 µM | 786-0 38.9 µM | A549 > 50 µM | NCI-H522 > 50 µM | SK-MEL-2 > 50 µM | SK-MEL-5 22.5 µM | SF-539 18.5 µM | HCC 2998 > 50 µM | MCF7 > 50 µM | OVCAR-5 > 50 µM | MDA-N > 50 µM | UO-31 > 50 µM | SNB-19 25.9 µM | OVCAR-8 19.1 µM

COCc1nc(C#N)c(N)o1
inactive: K562 > 10 µM | HL-60 > 10 µM | TK-10 > 10 µM | SN12C > 10 µM | UACC-257 > 10 µM | NCI/ADR-RES > 10 µM | LOX IMVI > 10 µM | CCRF-CEM > 10 µM | BT-549 > 10 µM | ACHN > 10 µM | MDA-MB-435 > 10 µM | EKVX > 10 µM | IGROV-1 > 10 µM | HT-29 > 10 µM | M14 > 10 µM | HOP-92 > 10 µM | UACC-62 > 10 µM | DU-145 > 10 µM | NCI-H226 > 10 µM | HOP-62 > 10 µM | Hs-578T > 10 µM | RPMI-8226 > 10 µM | MOLT-4 > 10 µM | SK-OV-3 > 10 µM | NCI-H460 > 10 µM | SW-620 > 10 µM | KM12 > 10 µM | HCT-116 > 10 µM | NCI-H23 > 10 µM | OVCAR-4 > 10 µM | SF-295 > 10 µM | RXF 393 > 10 µM | COLO 205 > 10 µM | CAKI-1 > 10 µM | SK-MEL-28 > 10 µM | SNB-75 > 10 µM | SF-268 > 10 µM | MDA-MB-231 > 10 µM | Malme-3M > 10 µM | T47D > 10 µM | PC-3 > 10 µM | 786-0 > 10 µM | A549 > 10 µM | NCI-H522 > 10 µM | SK-MEL-5 > 10 µM | SF-539 > 10 µM | HCC 2998 > 10 µM | SR > 10 µM | MCF7 > 10 µM | MDA-N > 10 µM | UO-31 > 10 µM | SNB-19 > 10 µM | OVCAR-8 > 10 µM
> 10 µM: HCT-15
